Experimental data from patent publication US20240269128A1, “COMPOUNDS FOR TREATING OR PREVENTING ALZHEIMER'S DISEASE” (THE UNITED STATES OF AMERICA, as represented by the …, priority 2021, published 2024).

Tests used:
BV-2 cells = assay: Aβ1-42 clearance assay; format: cell-based, mouse
Description: AB Clearance: For the amyloid beta (Aβ) clearance assay, 20000 BV-2 cells per well (uncoated 96 well plates) were plated out. After changing cells to treatment medium, drug compounds were administered 1 hour before Aβ stimulation (Bachem 4061966; final concentration in well: 200 ng/ml (dilutions in medium)). Cells treated with vehicle and cells treated with Aβ alone served as controls. After 3 h of Aβ stimulation, cell supernatants were collected for the Aβ measurement and cells were carefully washed twice with PBS and thereafter lysed in 35 μL cell lysis buffer (50 mM Tris-HCl, pH 7.4, 150 mM NaCl, 5 mM EDTA, 1% SDS) supplemented with protease inhibitors. Supernatants and cell lysates were analyzed for human Aβ42 with MSD® V-PLEX Human Aβ42 Peptide (6E10) Kit (K151LBE, Mesoscale Discovery). The immune assay was carried out according to the manual and plates were read on the MESO QuickPlex SQ 120.
Aβ1-42 clearance: For Abeta (Aβ1-42) clearance assay, 20,000 BV-2 cells per well (uncoated 96 well plates) were plated out. After changing cells to treatment medium, HCQ (0.25 μM, 2.5 μM and 25 μM) was applied 1 hour before Aβ1-42 stimulation (Bachem 4061966; final concentration in well: 200 ng/ml (dilutions in medium)). Cells treated with vehicle (0.1% DMSO) and cells treated with Aβ1-42 alone served as controls. After 3 h of Aβ1-42 stimulation, cell supernatants were collected for the Aβ1-42 measurement and cells were carefully washed twice with PBS and thereafter lysed in 35 μL cell lysis buffer (50 mM Tris-HCl, pH 7.4, 150 mM NaCl, 5 mM EDTA, 1% SDS) supplemented with protease inhibitors. Supernatants and cell lysates were analyzed for human Aβ1-42 with MSD® V-PLEX Human Aβ42 Peptide (6E10) Kit (K151LBE, Mesoscale Discovery). The immune assay was carried out according to the manufacturer's manual and plates were read on the MESO QuickPlex SQ 120.
Aβ Clearance: 20,000 BV2 cells per well (uncoated 96-well plates were plated out. After changing cells to treatment medium, drug compounds were administered 1 hour before Aβ stimulation (final concentration in well 200 ng/ml; dilutions in medium). Cells treated with vehicle and cells treated with Aβ alone served as controls. After 3 hours of Aβ stimulation, cell supernatants were collected for the Aβ measurement and cells were carefully washed twice with PBS and thereafter lysed in 35 μl of cell lysis buffer (50 mM tris-HCl, pH 7.4, 150 mM NaCl, 5 mM EDTA, and 1% SDS) supplemented with protease inhibitors. Supernatants and cell lysates were analyzed for human Aβ42 with the MSD V-PLEX Human Aβ42 Peptide (6E10) Kit (K151LBE, Mesoscale Discovery). The immune assay was carried out according to the manual, and plates were read on MESO QuickPlex SQ 120 (Meso Scale Diagnostics, Rockville, MD).
For Aβ clearance assay, 20,000 BV-2 cells per well (uncoated 96 well plates) were plated out. After 24 hours, medium was changed to treatment medium (DMEM, 5% FCS, 2 mM L-glutamine) and cells were maintained in treatment medium for the remaining culture period. After changing cells to treatment medium, the test items were administered 1 hour before Aβ stimulation (Bachem 4061966; final concentration in well: 200 ng/mL (dilutions in medium)). Cells treated with vehicle, cells treated with Aβ alone, as well as wells with Aβ but no cells served as controls. All wells were handled the same way. After 3 h of Aβ stimulation, cell supernatants were collected for the Aβ measurement and cells were carefully washed twice with PBS and thereafter lysed in 35 μl cell lysis buffer (50 mM Tris-HCl, pH 7.4, 150 mM NaCl, 5 mM EDTA, 1% SDS) supplemented with protease inhibitors. Cells were incubated for 15 min at RT on a plate shaker, samples were frozen at −80° C. until further use. The experiment was performed in n=6 technical replicates for all groups. […]

[1] = test system: hippocampal CA1 synapses of APP/PS1 mice; assay: Late long-term potentiation, field recordings in hippocampal slices; set-up: species or system mouse; details: for impaired late-LTP: APP/PS1 slices
[2] = WT and APP/PS1 before and after HCQ

Row | Compound | Aβ1-42 clearance (BV-2 cells; 25 μM) | Aβ1-42 in the supernatant (BV-2 cells; 25 μM) | Aβ1-42 supernatant:lysate ratio (BV-2 cells; 25 μM) | cell viability (BV-2 cells; 25 μM) | impaired late-LTP ([1]; 25 μM HCQ sulphate, bath-applied 60 min) | impaired late-LTP ([1]; 50 μM HCQ sulphate) | input-output (I/O) curves [1, 2] | paired pulse ratio (PPR) [1, 2] | L-LTP in wild type slices ([1]; wild type mice, 50 μM HCQ, vs untreated wild type) | effect in Aβ clearance (BV2 cells) (BV-2 cells; posterior probability of a protective effect, Bayesian dose-response model) | LTP in APP/PS1 mice ([1]; 100 μM TUDCA)
1 | CCN(CCO)CCCC(C)Nc1ccnc2cc(Cl)ccc12 (centres unmarked) [HCQ, hydroxychloroquine] | increased | reduced | lowering | without adverse effects on cell viability | partially rescued | fully rescued | did not show any significant differences | did not show a significant difference | does not alter L-LTP | – | –
2 | C[C@H](CCC(=O)NCCS(=O)(=O)O)[C@H]1CC[C@H]2[C@@H]3[C@@H](O)C[C@@H]4C[C@H](O)CC[C@]4(C)[C@H]3CC[C@]12C [TUDCA, tauroursodeoxycholic acid] | – | – | – | – | – | – | – | – | – | strongly protective | no longer induced LTP
